Measured values from patent publication US7514422B2, “5HT2c receptor modulators” (Arena Pharmaceuticals, Inc., priority 2002, dated 2009).

Target: T1, human 5-HT2c receptor (Homo sapiens, UniProt P28335)
T1 construct: expressed in transfected cells; host or cells: HEK293
T1 sequence (P28335 33-458): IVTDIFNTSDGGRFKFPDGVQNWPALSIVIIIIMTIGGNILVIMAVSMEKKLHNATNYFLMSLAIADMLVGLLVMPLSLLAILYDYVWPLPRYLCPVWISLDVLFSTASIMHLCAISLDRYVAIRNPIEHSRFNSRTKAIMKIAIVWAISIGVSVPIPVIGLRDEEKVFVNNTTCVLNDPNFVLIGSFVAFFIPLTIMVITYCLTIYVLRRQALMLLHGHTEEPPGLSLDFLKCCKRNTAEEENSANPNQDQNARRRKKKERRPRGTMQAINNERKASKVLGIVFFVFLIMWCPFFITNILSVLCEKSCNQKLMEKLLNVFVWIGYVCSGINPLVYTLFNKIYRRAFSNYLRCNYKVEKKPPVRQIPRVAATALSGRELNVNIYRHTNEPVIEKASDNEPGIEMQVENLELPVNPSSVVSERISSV
Assay: Intracellular IP3 Accumulation Assay
Format: cell-based
Conditions: HEK293 cells transfected with human 5-HT2c receptor; averages of at least two trials; read-out: 5-HT2C (IC50) IP Accumulation Assay
Experimental: HEK293 cells were transfected in 15 cm sterile dishes with or without (control) 16 ug of human 5-HT2c receptor cDNA using 25 ul of lipofectamine. Cells were then incubated for 34 hours at 37° C/5% CO2 and then transfection media was removed and replaced with 100 ul of DMEM. Cells were then plated onto […] sterile dishes. The next day cells were plated into 96 well PDL microtiter plates at a density of 55K/0.2 ml. Six hours latter, media was exchanged with [^3H]inositol (0.25 uCi/well) in inositol free DMEM and plates were incubated at 37° C./5% CO2 overnight. The next day, wells were aspirated and 200 ul of DMEM containing test compound, 10 uM pargyline, and 10 mM LiCl was added to appropriate wells. Plates were then incubated at 37° C./5% CO2 for three hours followed aspiration and by addition of fresh ice cold stop solution (1M KOH, 19 mM Na-borate, 3.8 mM EDTA) to each well. Plates were kept on ice for 5-10 min and the wells were neutralized by addition of 200 ul of fresh ice cold neutralization solution (7.5% HCl). Plates were then frozen until further processing is desired. The lysate was then transferred into 1.5 ml Eppendorf tubes and 1 ml of chloroform/methanol (1:2) was added/tube. The solution was vortexed for 15 seconds and the upper phase was applied to a Biorad AG1-X8™ anion exchange resin (100-200 mesh). First, the resin was washed with water at 1:1.25 W/V and 0.9 ml of upper phase was loaded onto the column. The column was then washed with 10 ml of 5 mM myo-inositol and 10 ml of 5 mM Na-borate/60 mM Na-formate. The inositol tris phosphates were eluted into scintillation vials containing 10 ml of scintillation cocktail with 2 ml of 0.1 M formic acid/1 M ammonium formate. The columns were regenerated by washing with 10 ml of 0.1 M formic acid/3M ammonium formate and rinsed twice with dd H2O and stored at 4° C. in water.

Question: For COc1cc2c(cc1Br)C(C)CNCC2 (racemic) [Example 1, (R,S) 8-Bromo-7-methoxy-1-methyl-2,3,4,5-tetrahydro-1H-3-benzazepine], which IC50 is on record?
Answer: Its IC50 is 4.2 nM.

Question: For COc1cc2c(cc1Cl)C(C)CNCC2 (racemic) [Example 2, (R,S) 8-Chloro-7-methoxy-1-methyl-2,3,4,5-tetrahydro-1H-3-benzazepine], which IC50 is on record?
Answer: The IC50 was 4.5 nM.

Question: COc1cc2c(cc1I)C(C)CNCC2 (racemic) [Example 3, (R,S) 8-Iodo-7-methoxy-1-methyl-2,3,4,5taetrhydro-1H-3-benzazepine] was tested. Which IC50 did it give?
Answer: Its IC50 is 1.4 nM.

Question: For CC1CNCCc2cc(O)c(Br)cc21 (racemic) [Example 4, (R,S) 8-Bromo-7-hydroxy-1-methyl-2,3,4,5tetrahydro-1H-3-benzazepine], which IC50 is on record?
Answer: Its IC50 is 2.1 nM.

Question: How did the IC50 turn out when C=CCOc1cc2c(cc1Br)C(C)CNCC2 (racemic) [Example 5, (R,S) 7-Allyloxy-8-bromo-1-methyl-2,3,4,5tetrahydro-1H-3-benzazepine] was run?
Answer: The IC50 was 12.1 nM.

Question: How did the IC50 turn out when C=CCOc1cc2c(cc1I)C(C)CNCC2 (racemic) [Example 12, (R,S) 7-Allyloxy-8-iodo-1-methyl-2,3,4,5-tetrahydro-1H-3-benzazepine] was run?
Answer: The IC50 was 6.3 nM.

Question: Which IC50 does the source give for CCC1CNCCc2cc(OC)c(Br)cc21 (racemic) [Example 19, (R,S) 8-Bromo-1-ethyl-7-methoxy-2,3,4,5-tetrahydro-1H-3-benzazepine] here?
Answer: Its IC50 is 18 nM.

Question: How did the IC50 turn out when CC1CNCCc2ccc(Br)cc21 (racemic) [Example 32, (R,S) 8-Bromo-1-methyl-2,3,4,5tetrahydro-1H-3-benzazepine] was run?
Answer: The IC50 was 2.1 nM.
